Earlier results as cited in US20250367263A9, “Therapeutic Regimens and Methods for Treatment of Cardiovascular Risk Factors using a GLP-1R and GCGR Agonist” (Spitfire Pharma LLC, priority 2022, published 2025).

For `CCCCCCCCCCCCCCCC(=O)N[C@@H](CCC(=O)NCCCC[C@H](NC(=O)[C@H](CC(=O)O)NC(=O)[C@H](CO)NC(=O)[C@@H](NC(=O)[C@H](Cc1ccccc1)NC(=O)[C@@H](NC(=O)CNC(=O)[C@H](CCC(N)=O)NC(=O)[C@H](CO)NC(=O)[C@@H](N)Cc1c[nH]cn1)[C@@H](C)O)[C@@H](C)O)C(=O)N[C@@H](CO)C(=O)N[C@@H](CCC(=O)O)C(=O)N[C@@H](Cc1ccc(O)cc1)C(=O)N[C@@H](CC(C)C)C(=O)N[C@@H](CC(=O)O)C(=O)N[C@@H](CO)C(=O)N[C@@H](CCC(=O)O)C(=O)N[C@@H](CCCNC(=N)N)C(=O)N[C@@H](C)C(=O)N[C@@H](CCCNC(=N)N)C(=O)N[C@@H](CC(=O)O)C(=O)N[C@@H](Cc1ccccc1)C(=O)N[C@H](C(=O)N[C@@H](C)C(=O)N[C@@H](Cc1c[nH]c2ccccc12)C(=O)N[C@@H](CC(C)C)C(=O)N[C@@H](CCC(=O)O)C(=O)N[C@@H](C)C(=O)NCC(=O)NCC(=O)O)C(C)C)C(=O)O` [cotadutide], the “reduction in liver fat content” value (6 weeks) is given as 39% and the “NASH-related alanine aminotransferase (ALT) reduction, versus liraglutide alone” value (human, in vivo) is given as “greater improvement”.
